Test results taken from patent US11642343B2, “Methods of treating splenomegaly” (Telios Pharma, Inc., priority 2020, dated 2023).

How the values were obtained:
BTK [1] = target: T1, BTK (Homo sapiens, UniProt Q06187); test: Inhibition of BTK phosphorylation (activation) in myeloid cell line Hel-92 basal; type: cell-based; design: endogenous in cells; host or cells: MOLM-13; settings: incubated two hours with no stimulation
Description: (§1) Inhibition of BTK phosphorylation (activation) by Compound No. 128 (1-(4-(((6-amino-5-(4-phenoxyphenyl)pyrimidin-4-yl)amino)methyl)-4-fluoropiperidin-1-yl)prop-2-en-1-one) was assessed in healthy B-cells and in myeloid cell lines MOLM-13 basal and Hel-92 basal. Compound No. 128 was incubated with the myeloid cells lines for two hours with no stimulation and with healthy PBMC5 for two hours with 10 minutes of αIgM and H2O2 stimulation.

Hel-92 (V617F mut) cells = test: In vitro inhibition of cell migration towards SDF-1 (CXCL12) through a permeable membrane; settings: FIG. 1A and 1B
stimulated whole blood = test: In vitro cytokine production in stimulated whole blood; type: cell-based; settings: 24 hour incubation, FIG. 4
Description: The impact on in vitro cytokine production after exposure to Compound No. 128 was assessed in stimulated whole blood following a 24 hour incubation.

[2] = system: CD11a (LFA-1), CD62L (L-selectin), and CD49d (VLA-4); type: in vivo, human; settings: monocytes from blood of treated COVID-19 patients; FIG. 3
BTK [3] = target: T1, BTK; test: Inhibition of BTK phosphorylation (activation) in healthy B-cells; type: cell-based; design: endogenous in cells; settings: healthy PBMC incubated two hours with 10 minutes of αIgM and H2O2 stimulation
Description: as §1

MV-411 cells = test: Fibronectin release: detachment of cells from fibronectin-coated plates; type: cell-based; settings: MV-411 cells on fibronectin-coated plates; 1, 2, or 5 μm for two hours at 37° C.; CellTiter Glo; FIG. 2
Description: Fibronectin is an important component of the microenvironment extracellular matrix and attaches to cells through VLA-4 (integrin α4β1). Detachment of cells from fibronectin after exposure to Compound No. 128 was assessed by plating 1×10^6 MV-411 cells on fibronectin-coated plates (3 replicates). The cells were allowed to adhere overnight at 37° C. and then unadhered cells were washed away. Next, attached cells were treated with DMSO or Compound No. 128 (1, 2, or 5 μm) for two hours at 37° C. Detached cells were then collected and cell numbers determined using CellTiter Glo.

BTK [4] = target: T1, BTK; test: Inhibition of BTK phosphorylation (activation) in myeloid cell line MOLM-13 basal; type: cell-based; design: endogenous in cells; host or cells: MOLM-13; settings: incubated two hours with no stimulation
Description: as §1

T1 sequence (Q06187 whole entry): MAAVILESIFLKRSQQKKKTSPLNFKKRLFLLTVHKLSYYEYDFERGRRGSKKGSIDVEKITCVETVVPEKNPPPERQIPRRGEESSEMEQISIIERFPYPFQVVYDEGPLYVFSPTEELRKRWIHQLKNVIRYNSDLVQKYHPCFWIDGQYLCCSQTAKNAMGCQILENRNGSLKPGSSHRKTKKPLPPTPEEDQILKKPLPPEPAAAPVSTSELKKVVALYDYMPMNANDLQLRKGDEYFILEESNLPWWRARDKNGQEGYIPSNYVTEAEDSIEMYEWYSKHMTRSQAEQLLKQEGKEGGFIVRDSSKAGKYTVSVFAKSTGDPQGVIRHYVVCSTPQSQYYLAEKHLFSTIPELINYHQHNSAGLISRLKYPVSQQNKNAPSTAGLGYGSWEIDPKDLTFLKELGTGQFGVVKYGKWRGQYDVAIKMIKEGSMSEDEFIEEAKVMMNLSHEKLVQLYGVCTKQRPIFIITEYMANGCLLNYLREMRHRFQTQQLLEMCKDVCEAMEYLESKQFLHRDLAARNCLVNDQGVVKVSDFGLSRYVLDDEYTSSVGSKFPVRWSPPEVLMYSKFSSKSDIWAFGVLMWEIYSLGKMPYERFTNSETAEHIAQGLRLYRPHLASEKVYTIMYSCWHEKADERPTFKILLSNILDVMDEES

Question: Which EC50 (BTK [1]) does the source give for C=CC(=O)N1CCC(F)(CNc2ncnc(N)c2-c2ccc(Oc3ccccc3)cc2)CC1 [Compound No. 128, 1-(4-(((6-amino-5-(4-phenoxyphenyl)pyrimidin-4-yl)amino)methyl)-4-fluoropiperidin-1-yl)prop-2-en-1-one] here?
Answer: Its EC50 is 19.7 nM.

Question: What about the “inhibition of cell migration towards SDF-1” value (Hel-92 (V617F mut) cells) of the same compound?
Answer: Its value is “inhibit cell migration towards SDF-1”.

Question: And the “cytokine and chemokine production” value (stimulated whole blood)?
Answer: The value was “decreased cytokine and chemokine production upon cellular stimulation”.

Question: What about the “levels of surface molecules CD11a (LFA-1), CD62L (L-selectin), CD49d (VLA-4)” value [2] of the same compound?
Answer: Its value is “reduced levels of surface molecules in some patients”.

Question: What about the EC50 (BTK [3]) of the same compound?
Answer: The EC50 was 16.9 nM.

Question: And the “detachment of cells from fibronectin” value (MV-411 cells)?
Answer: The value was “cells detached from fibronectin”.

Question: What about the EC50 (BTK [4]) of the same compound?
Answer: The EC50 was 21.4 nM.
